Measurements reported in PubChem BioAssay AID248 (DTP/NCI, 2004).
“And” between values parts separate entries of the source, which are not always exact repeats. Equal entries are not always repeated. Toxic doses and inconclusive results are not listed. Rule as the data show it: active = T/C of 150% or more; inactive = T/C below 125%.

Test system: L1210 leukemia ip in BDF1 mice, survival T/C
Assay: NCI In Vivo Anticancer Drug Screen. Data for tumor model L1210 Leukemia (intraperitoneal) in B6D2F1 (BDF1) mice
Settings: endpoint: mean survival time, higher = longer survival
How it was run: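 Tumor cells were implanted, animals were treated, and survival was followed. The result divides the treated measurement by the vehicle-control measurement.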

[1] = dose: 100.0 mg/kg/injection, schedule: Q01DX001 (ip), vehicle: carboxymethylcellulose (CMC)
[2] = dose: 100.0 mg/kg/injection, schedule: Q01DX009 (ip), vehicle: Klucel (hydroxypropylcellulose) (HPC)
[3] = dose: 200.0 mg/kg/injection, schedule: Q01DX009 (ip), vehicle: Klucel (hydroxypropylcellulose) (HPC)
[4] = dose: 400.0 mg/kg/injection, schedule: Q01DX009 (ip), vehicle: Klucel (hydroxypropylcellulose) (HPC)
[5] = dose: 50.0 mg/kg/injection, schedule: Q01DX009 (ip), vehicle: saline with Tween-80
[6] = dose: 100.0 mg/kg/injection, schedule: Q01DX009 (ip), vehicle: saline
[7] = dose: 400.0 mg/kg/injection, schedule: Q01DX009 (ip), vehicle: saline
[8] = dose: 100.0 mg/kg/injection, schedule: Q04DX003 (ip), vehicle: Klucel (hydroxypropylcellulose) (HPC)
[9] = dose: 200.0 mg/kg/injection, schedule: Q04DX003 (ip), vehicle: Klucel (hydroxypropylcellulose) (HPC)
[10] = dose: 400.0 mg/kg/injection, schedule: Q04DX003 (ip), vehicle: Klucel (hydroxypropylcellulose) (HPC)
[11] = dose: 100.0 mg/kg/injection, schedule: Q01DX001 (ip), vehicle: saline
[12] = dose: 200.0 mg/kg/injection, schedule: Q01DX001 (ip), vehicle: saline
[13] = dose: 400.0 mg/kg/injection, schedule: Q01DX001 (ip), vehicle: saline

Measured: T/C

C#CC1(O)CCC2C3CCc4cc(OC)ccc4C3CCC21C (centres undefined)
inactive: dose: 10.0 mg/kg/injection, schedule: Q01DX009 (sc), vehicle: saline with Tween-80 102 % of control | dose: 100.0 mg/kg/injection, schedule: Q04DX003 (sc), vehicle: olive oil, sesame oil, peanut oil 102 % of control | dose: 200.0 mg/kg/injection, schedule: Q01DX009 (sc), vehicle: saline with Tween-80 98 % of control | dose: 200.0 mg/kg/injection, schedule: Q04DX003 (sc), vehicle: olive oil, sesame oil, peanut oil 102 % of control | dose: 400.0 mg/kg/injection, schedule: Q01DX009 (sc), vehicle: saline with Tween-80 96 % of control | dose: 400.0 mg/kg/injection, schedule: Q04DX003 (sc), vehicle: olive oil, sesame oil, peanut oil 100 % of control

O=c1[nH]c2c(Br)c([N+](=O)[O-])c(Br)cc2c2ccc(Br)cc12
inactive: [1] 100 % of control | dose: 200.0 mg/kg/injection, schedule: Q01DX001 (ip), vehicle: carboxymethylcellulose (CMC) 98 % of control | dose: 400.0 mg/kg/injection, schedule: Q01DX001 (ip), vehicle: carboxymethylcellulose (CMC) 91 % of control

COc1ccc(OC)c(NC(=O)Nc2ccc(C(=O)O)c(O)c2)c1
inactive: [2] 91 % of control | [3] 103 % of control | [4] 97 % of control

OC1C2(CCCCC2)CNC12C=CCCC2 (centres undefined)
inactive: dose: 75.0 mg/kg/injection, schedule: Q01DX001 (ip), vehicle: saline 98 % of control | dose: 150.0 mg/kg/injection, schedule: Q01DX001 (ip), vehicle: saline 97 % of control

C[n+]1cccc(C(=O)N/N=C/C=C/c2ccccc2)c1
inactive: [5] 96 % of control | dose: 100.0 mg/kg/injection, schedule: Q01DX009 (ip), vehicle: saline with Tween-80 100 % of control

CC(=O)/C=C/c1ccc2c(c1)OCO2
inactive: dose: 25.0 mg/kg/injection, schedule: Q01DX009 (ip), vehicle: saline 105 % of control | dose: 50.0 mg/kg/injection, schedule: Q01DX009 (ip), vehicle: saline 96 % of control | [6] 110 % of control | dose: 200.0 mg/kg/injection, schedule: Q01DX009 (ip), vehicle: saline 94 % of control | [7] 102 % of control

O=[N+]([O-])CC(OCCCO)C(Cl)(Cl)Cl (centres undefined)
inactive: dose: 6.25 mg/kg/injection, schedule: Q01DX009 (ip), vehicle: saline with Tween-80 92 % of control | dose: 12.5 mg/kg/injection, schedule: Q01DX009 (ip), vehicle: saline with Tween-80 101 % of control | dose: 25.0 mg/kg/injection, schedule: Q01DX009 (ip), vehicle: saline with Tween-80 104 % of control | [5] 92 % of control and 91 % of control

c1ccc2c(c1)C1CC(N3CCCCC3)C2c2ccccc21 (centres undefined)
inactive: [6] 102 % of control | dose: 100.0 mg/kg/injection, schedule: Q04DX003 (ip), vehicle: alcohol 95 % of control | dose: 200.0 mg/kg/injection, schedule: Q04DX003 (ip), vehicle: alcohol 95 % of control | [7] 100 % of control | dose: 400.0 mg/kg/injection, schedule: Q04DX003 (ip), vehicle: alcohol 93 % of control

O=C(Nc1c[nH]c(=O)[nH]c1=O)Oc1ccccc1
inactive: [2] 98 % of control | [8] 100 % of control | [3] 95 % of control | [9] 88 % of control | [4] 93 % of control | [10] 100 % of control

N#CC(C#N)=Cc1cccc([N+](=O)[O-])c1
inactive: dose: 50.0 mg/kg/injection, schedule: Q01DX001 (ip), vehicle: carboxymethylcellulose (CMC) 102 % of control | [1] 102 % of control | [2] 97 % of control | [8] 102 % of control | [10] 106 % of control

O=C(COC(=O)c1ccccc1Br)c1ccc(-c2ccccc2)cc1
inactive: [11] 94 % of control | [12] 100 % of control | [13] 91 % of control

CCOP(=O)(OCC)C1CC(C(C)C)CCC1C (centres undefined)
inactive: dose: 75.0 mg/kg/injection, schedule: Q01DX001 (ip), vehicle: other 93 % of control | dose: 150.0 mg/kg/injection, schedule: Q01DX001 (ip), vehicle: other 98 % of control | dose: 300.0 mg/kg/injection, schedule: Q01DX001 (ip), vehicle: other 110 % of control

CC(=O)C1CCC2(C)CCC(=O)C(C)C2C1 (centres undefined)
inactive: dose: 50.0 mg/kg/injection, schedule: Q04DX003 (ip), vehicle: Klucel (hydroxypropylcellulose) (HPC) 107 % of control | dose: 100.0 mg/kg/injection, schedule: Q01DX001 (ip), vehicle: Klucel (hydroxypropylcellulose) (HPC) 104 % of control | [2] 100 % of control | [8] 104 % of control | dose: 200.0 mg/kg/injection, schedule: Q01DX001 (ip), vehicle: Klucel (hydroxypropylcellulose) (HPC) 106 % of control | [3] 100 % of control | [9] 101 % of control | dose: 400.0 mg/kg/injection, schedule: Q01DX001 (ip), vehicle: Klucel (hydroxypropylcellulose) (HPC) 101 % of control | [4] 98 % of control | [10] 101 % of control

Cc1ccccc1NC(=O)Nc1ccc(Nc2ccccc2)cc1
inactive: [2] 97 % of control | [3] 91 % of control | [4] 100 % of control

O=C(NO)c1cccnc1
inactive: [2] 97 % of control | [3] 102 % of control | dose: 270.0 mg/kg/injection, schedule: Q01DX009 (ip), vehicle: acetone 102 % of control | dose: 270.0 mg/kg/injection, schedule: Q01DX015 (ip), vehicle: water 121 % of control | dose: 400.0 mg/kg/injection, schedule: Q01DX001 (ip), vehicle: water 99 % of control | [4] 101 % of control | dose: 400.0 mg/kg/injection, schedule: Q01DX009 (ip), vehicle: acetone 109 % of control | dose: 600.0 mg/kg/injection, schedule: Q01DX001 (ip), vehicle: water 106 % of control | dose: 600.0 mg/kg/injection, schedule: Q01DX009 (ip), vehicle: acetone 100 % of control | dose: 800.0 mg/kg/injection, schedule: Q01DX001 (ip), vehicle: water 99 % of control | dose: 800.0 mg/kg/injection, schedule: Q01DX009 (ip), vehicle: Klucel (hydroxypropylcellulose) (HPC) 109 % of control | dose: 800.0 mg/kg/injection, schedule: Q01DX009 (ip), vehicle: acetone 103 % of control | dose: 800.0 mg/kg/injection, schedule: Q01DX015 (ip), vehicle: water 110 % of control and 117 % of control

CCn1c(N)cc(=O)[nH]c1=S
inactive: dose: 50.0 mg/kg/injection, schedule: Q01DX001 (ip), vehicle: saline 96 % of control | [11] 108 % of control | [12] 102 % of control | [13] 106 % of control

Cc1ccc([N+](=O)[O-])cc1NC(=O)Nc1ccccc1C(F)(F)F
inactive: [2] 93 % of control | [3] 96 % of control | [4] 95 % of control

NCCCC(NC(=O)CCCCCCCCN=C(N)N)C(O)CCCCCCCCN=C(N)N (centres undefined)
inactive: dose: 0.38 mg/kg/injection, schedule: Q01DX Z (ip), vehicle: carboxymethylcellulose (CMC) 102 % of control | dose: 0.75 mg/kg/injection, schedule: Q01DX Z (ip), vehicle: carboxymethylcellulose (CMC) 94 % of control | dose: 1.5 mg/kg/injection, schedule: Q01DX Z (ip), vehicle: carboxymethylcellulose (CMC) 96 % of control | dose: 3.0 mg/kg/injection, schedule: Q01DX Z (ip), vehicle: carboxymethylcellulose (CMC) 107 % of control | dose: 5.0 mg/kg/injection, schedule: Q01DX001 (ip), vehicle: carboxymethylcellulose (CMC) 94 % of control | dose: 6.0 mg/kg/injection, schedule: Q01DX Z (ip), vehicle: carboxymethylcellulose (CMC) 121 % of control | dose: 10.0 mg/kg/injection, schedule: Q01DX001 (ip), vehicle: carboxymethylcellulose (CMC) 100 % of control | dose: 20.0 mg/kg/injection, schedule: Q01DX001 (ip), vehicle: carboxymethylcellulose (CMC) 103 % of control

S=C=NCc1ccc(Cl)cc1
inactive: dose: 6.25 mg/kg/injection, schedule: Q01DX009 (ip), vehicle: Klucel (hydroxypropylcellulose) (HPC) 103 % of control | dose: 12.5 mg/kg/injection, schedule: Q01DX009 (ip), vehicle: Klucel (hydroxypropylcellulose) (HPC) 92 % of control | dose: 25.0 mg/kg/injection, schedule: Q01DX009 (ip), vehicle: Klucel (hydroxypropylcellulose) (HPC) 95 % of control

NNc1ncnc2nncnc12
inactive: dose: 9.5 mg/kg/injection, schedule: Q01DX001 (ip), vehicle: other 98 % of control | dose: 19.0 mg/kg/injection, schedule: Q01DX001 (ip), vehicle: other 105 % of control | dose: 38.0 mg/kg/injection, schedule: Q01DX001 (ip), vehicle: other 104 % of control
